ChEMBL document CHEMBL5665443, “Enzyme Inhibitor Single Concentration assay results for EUbOPEN Chemogenomics Library” (2024)
Several values for one entry are separate records, joined by “and”; a condition that tells them apart may be missing. Identical values can stand only once.

What was measured:
Conditions in all cases: Compound Concentration 10.0 uM, Hit No
[1] = molecular target: G/T mismatch-specific thymine DNA glycosylase (Homo sapiens) (UniProt Q13569);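 also: human TDG cleavage of quenched duplex DNA oligonucleotides coupled to APE1, strand release read as fluorescence at 594 nm, inhibition of TDG activity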
Description: Inhibition of TDG by quantifying inhibition of TDG-mediated cleavage and dissociation of quenched duplex DNA oligonucleotides, measured as fluorescence at 594 nm. To generate a functional strand incision and increase turn-over this assay is coupled to APE1.

[2] = molecular target: T1, Endonuclease 8-like 2 (Homo sapiens) (UniProt Q969S2);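 also: fluorescence at 594 nm reports NEIL2 cutting and release of a quenched double-stranded DNA oligo substrate, reduced signal read as inhibition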
T1 sequence (whole entry): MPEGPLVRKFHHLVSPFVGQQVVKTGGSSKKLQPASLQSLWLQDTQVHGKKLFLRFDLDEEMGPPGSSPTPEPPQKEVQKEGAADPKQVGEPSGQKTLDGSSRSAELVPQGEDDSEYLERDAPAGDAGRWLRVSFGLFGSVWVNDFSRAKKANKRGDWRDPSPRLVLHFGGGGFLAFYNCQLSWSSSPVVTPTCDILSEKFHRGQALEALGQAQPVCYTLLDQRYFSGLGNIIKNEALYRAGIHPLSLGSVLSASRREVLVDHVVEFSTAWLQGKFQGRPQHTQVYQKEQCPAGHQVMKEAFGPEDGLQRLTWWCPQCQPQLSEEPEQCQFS
Description: Inhibition of NEIL2 by quantifying inhibition of NEIL2-mediated cleavage and dissociation of quenched duplex DNA oligonucleotides, measured as fluorescence at 594 nm.

[3] = molecular target: N-glycosylase/DNA lyase (Homo sapiens) (UniProt O15527);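 also: OGG1 cleavage of a quenched duplex DNA oligonucleotide, coupled to APE1 for strand incision, read as fluorescence at 594 nm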
Description: Inhibition of OGG1 by quantifying inhibition of OGG1-mediated cleavage and dissociation of quenched duplex DNA oligonucleotides, measured as fluorescence at 594 nm. To generate a functional strand incision and increase turn-over this assay is coupled to APE1.

[4] = molecular target: DNA-3-methyladenine glycosylase (Homo sapiens) (UniProt P29372);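 also: enzyme assay where MPG cuts a quenched duplex DNA oligonucleotide probe, paired with APE1 for strand incision and turnover, read as fluorescence at 594 nm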
Description: Inhibition of MPG by quantifying inhibition of MPG-mediated cleavage and dissociation of quenched duplex DNA oligonucleotides, measured as fluorescence at 594 nm. To generate a functional strand incision and increase turn-over this assay is coupled to APE1.

[5] = molecular target: Methyl-CpG-binding domain protein 4 (Homo sapiens) (UniProt O95243);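 also: MBD4 activity read as fluorescence at 594 nm from cleavage and release of a quenched duplex DNA oligonucleotide, with APE1 coupled to incise the strand and raise turnover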
Description: Inhibition of MBD4 by quantifying inhibition of MBD4-mediated cleavage and dissociation of quenched duplex DNA oligonucleotides, measured as fluorescence at 594 nm. To generate a functional strand incision and increase turn-over this assay is coupled to APE1.

[6] = molecular target: T2, Endonuclease III-like protein 1 (Homo sapiens) (UniProt P78549);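 also: enzyme assay tracking NTHL1 cutting and release of a quenched double-stranded DNA oligo substrate, read as fluorescence at 594 nm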
T2 sequence (whole entry): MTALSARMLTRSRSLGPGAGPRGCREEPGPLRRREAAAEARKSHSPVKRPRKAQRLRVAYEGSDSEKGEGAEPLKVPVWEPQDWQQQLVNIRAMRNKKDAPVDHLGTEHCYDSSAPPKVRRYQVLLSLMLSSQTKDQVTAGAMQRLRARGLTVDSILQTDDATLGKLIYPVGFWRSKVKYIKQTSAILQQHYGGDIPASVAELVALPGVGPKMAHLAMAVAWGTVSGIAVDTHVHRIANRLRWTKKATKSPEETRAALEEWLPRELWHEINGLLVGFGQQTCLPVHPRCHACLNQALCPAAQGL
Description: Inhibition of NTHL1 by quantifying inhibition of NTHL1-mediated cleavage and dissociation of quenched duplex DNA oligonucleotides, measured as fluorescence at 594 nm.

[7] = molecular target: T3, Single-strand selective monofunctional uracil DNA glycosylase (Homo sapiens) (UniProt Q53HV7);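 also: enzymatic SMUG1 assay coupled with APE1, reading fluorescence at 594 nm released when a quenched double-stranded DNA oligonucleotide substrate is cleaved and separated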
T3 sequence (whole entry): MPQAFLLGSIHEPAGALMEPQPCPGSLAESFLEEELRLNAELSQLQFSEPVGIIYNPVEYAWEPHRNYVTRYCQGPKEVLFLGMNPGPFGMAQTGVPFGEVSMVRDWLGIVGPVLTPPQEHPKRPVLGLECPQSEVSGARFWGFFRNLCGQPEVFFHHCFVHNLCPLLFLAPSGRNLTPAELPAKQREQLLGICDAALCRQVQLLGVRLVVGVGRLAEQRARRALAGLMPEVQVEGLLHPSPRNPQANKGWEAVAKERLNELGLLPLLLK
Description: Inhibition of SMUG1 by quantifying inhibition of SMUG1-mediated cleavage and dissociation of quenched duplex DNA oligonucleotides, measured as fluorescence at 594 nm. To generate a functional strand incision and increase turn-over this assay is coupled to APE1.

[8] = molecular target: Endonuclease 8-like 1 (Homo sapiens) (UniProt Q96FI4);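 also: fluorescence at 594 nm from quenched duplex DNA oligonucleotides released by NEIL1 cleavage and strand separation, reported as reduction of this enzyme activity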
Description: Inhibition of NEIL1 by quantifying inhibition of NEIL1-mediated cleavage and dissociation of quenched duplex DNA oligonucleotides, measured as fluorescence at 594 nm.

[9] = molecular target: T4, Adenine DNA glycosylase (Homo sapiens) (UniProt Q9UIF7);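 also: human MUTYH activity read as 594 nm fluorescence from cleavage and release of a quenched DNA duplex, coupled with APE1 for strand incision, lower signal meaning inhibition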
T4 sequence (whole entry): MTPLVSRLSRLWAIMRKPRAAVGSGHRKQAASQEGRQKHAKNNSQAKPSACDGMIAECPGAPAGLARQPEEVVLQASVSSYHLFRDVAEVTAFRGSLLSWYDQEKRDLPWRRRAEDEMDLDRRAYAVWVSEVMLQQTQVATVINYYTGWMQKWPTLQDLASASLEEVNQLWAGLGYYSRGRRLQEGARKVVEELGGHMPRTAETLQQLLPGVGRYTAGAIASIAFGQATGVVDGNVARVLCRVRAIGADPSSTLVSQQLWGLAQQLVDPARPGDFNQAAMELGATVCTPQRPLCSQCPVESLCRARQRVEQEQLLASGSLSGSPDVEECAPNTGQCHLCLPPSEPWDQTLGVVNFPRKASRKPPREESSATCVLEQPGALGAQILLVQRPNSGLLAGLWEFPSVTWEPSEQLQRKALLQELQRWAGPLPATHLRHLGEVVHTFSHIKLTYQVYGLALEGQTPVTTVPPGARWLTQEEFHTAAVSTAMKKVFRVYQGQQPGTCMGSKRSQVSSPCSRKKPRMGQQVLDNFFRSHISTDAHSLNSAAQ
Description: Inhibition of MUTYH by quantifying inhibition of MUTYH-mediated cleavage and dissociation of quenched duplex DNA oligonucleotides, measured as fluorescence at 594 nm. To generate a functional strand incision and increase turn-over this assay is coupled to APE1.

[10] = molecular target: Uracil-DNA glycosylase (Homo sapiens) (UniProt P13051);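 also: UNG excision on a quenched double-stranded DNA oligo probe, with APE1 added for strand incision and turnover, read as fluorescence at 594 nm as strands separate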
Chain of Uracil-DNA glycosylase (Homo sapiens) (P13051 whole entry): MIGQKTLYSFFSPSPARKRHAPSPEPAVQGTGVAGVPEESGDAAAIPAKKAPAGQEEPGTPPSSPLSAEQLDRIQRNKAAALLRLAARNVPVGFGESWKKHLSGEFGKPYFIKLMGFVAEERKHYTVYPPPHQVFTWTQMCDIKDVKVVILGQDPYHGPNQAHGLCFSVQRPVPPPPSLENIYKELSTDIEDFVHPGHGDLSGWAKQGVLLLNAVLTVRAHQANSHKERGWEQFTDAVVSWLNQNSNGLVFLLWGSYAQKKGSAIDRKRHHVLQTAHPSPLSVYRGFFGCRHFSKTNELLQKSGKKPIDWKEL
Description: Inhibition of UNG by quantifying inhibition of UNG-mediated cleavage and dissociation of quenched duplex DNA oligonucleotides, measured as fluorescence at 594 nm. To generate a functional strand incision and increase turn-over this assay is coupled to APE1.

Chain of Methyl-CpG-binding domain protein 4 (Homo sapiens) (O95243 whole entry, the tested form may be a part): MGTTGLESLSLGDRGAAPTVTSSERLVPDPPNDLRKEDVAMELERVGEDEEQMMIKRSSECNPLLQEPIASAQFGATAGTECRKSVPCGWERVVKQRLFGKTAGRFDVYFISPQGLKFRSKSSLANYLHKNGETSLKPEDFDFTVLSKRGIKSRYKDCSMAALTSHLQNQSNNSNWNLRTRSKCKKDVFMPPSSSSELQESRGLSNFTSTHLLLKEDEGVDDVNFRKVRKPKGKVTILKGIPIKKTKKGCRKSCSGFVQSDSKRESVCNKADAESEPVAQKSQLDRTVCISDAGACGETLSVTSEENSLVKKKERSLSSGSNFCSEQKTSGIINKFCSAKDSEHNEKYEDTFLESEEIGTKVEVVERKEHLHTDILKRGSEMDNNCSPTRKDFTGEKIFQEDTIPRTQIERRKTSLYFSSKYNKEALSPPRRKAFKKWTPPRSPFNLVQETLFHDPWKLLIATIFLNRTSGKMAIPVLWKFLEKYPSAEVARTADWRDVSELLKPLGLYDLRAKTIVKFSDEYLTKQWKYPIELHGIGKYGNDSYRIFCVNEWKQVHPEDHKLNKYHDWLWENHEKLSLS
Chain of N-glycosylase/DNA lyase (Homo sapiens) (O15527 whole entry): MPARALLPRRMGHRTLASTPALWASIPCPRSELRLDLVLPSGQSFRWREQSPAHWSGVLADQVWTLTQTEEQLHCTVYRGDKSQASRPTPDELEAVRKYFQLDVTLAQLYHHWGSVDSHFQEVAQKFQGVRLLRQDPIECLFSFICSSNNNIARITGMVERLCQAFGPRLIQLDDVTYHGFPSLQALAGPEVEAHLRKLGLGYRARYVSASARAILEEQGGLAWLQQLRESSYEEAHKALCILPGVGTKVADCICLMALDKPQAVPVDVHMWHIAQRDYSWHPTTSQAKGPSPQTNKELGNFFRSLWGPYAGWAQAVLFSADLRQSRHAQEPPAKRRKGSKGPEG
Chain of G/T mismatch-specific thymine DNA glycosylase (Homo sapiens) (Q13569 whole entry): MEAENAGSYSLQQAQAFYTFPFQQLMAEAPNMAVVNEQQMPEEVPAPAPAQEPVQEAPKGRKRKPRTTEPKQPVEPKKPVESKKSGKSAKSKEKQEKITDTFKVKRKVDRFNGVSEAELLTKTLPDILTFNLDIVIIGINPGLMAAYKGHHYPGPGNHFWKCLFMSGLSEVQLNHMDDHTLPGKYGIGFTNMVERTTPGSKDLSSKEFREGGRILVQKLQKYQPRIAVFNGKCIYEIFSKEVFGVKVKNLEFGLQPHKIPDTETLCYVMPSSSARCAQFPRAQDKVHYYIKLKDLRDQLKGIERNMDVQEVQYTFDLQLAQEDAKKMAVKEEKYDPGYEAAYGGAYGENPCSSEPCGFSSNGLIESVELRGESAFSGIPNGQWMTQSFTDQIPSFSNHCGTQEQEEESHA
Chain of Endonuclease 8-like 1 (Homo sapiens) (Q96FI4 whole entry): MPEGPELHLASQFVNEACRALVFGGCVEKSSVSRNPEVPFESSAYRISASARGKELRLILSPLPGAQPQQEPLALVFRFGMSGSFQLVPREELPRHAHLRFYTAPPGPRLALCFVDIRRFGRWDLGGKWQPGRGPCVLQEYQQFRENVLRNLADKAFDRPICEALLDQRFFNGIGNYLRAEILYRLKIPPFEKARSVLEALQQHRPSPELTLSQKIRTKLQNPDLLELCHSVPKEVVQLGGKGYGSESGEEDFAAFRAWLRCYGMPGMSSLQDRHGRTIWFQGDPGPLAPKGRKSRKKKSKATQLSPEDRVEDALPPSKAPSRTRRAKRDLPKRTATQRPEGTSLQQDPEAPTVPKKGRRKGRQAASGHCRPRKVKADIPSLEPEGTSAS
Chain of DNA-3-methyladenine glycosylase (Homo sapiens) (P29372 whole entry, the tested form may be a part): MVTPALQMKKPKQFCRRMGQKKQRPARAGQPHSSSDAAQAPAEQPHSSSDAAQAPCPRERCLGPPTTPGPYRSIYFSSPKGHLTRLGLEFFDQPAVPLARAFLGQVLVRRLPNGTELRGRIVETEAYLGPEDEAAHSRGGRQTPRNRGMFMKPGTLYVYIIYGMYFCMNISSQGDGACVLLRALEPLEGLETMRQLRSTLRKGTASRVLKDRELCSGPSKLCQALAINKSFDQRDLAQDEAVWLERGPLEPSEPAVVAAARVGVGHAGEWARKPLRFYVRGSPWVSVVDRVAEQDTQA

Structure (SMILES)	inhibition [1] [%]	inhibition [2]	inhibition [3] [%]	inhibition [4] [%]	inhibition [5] [%]	inhibition [6] [%]	inhibition [7] [%]	inhibition [8]	inhibition [9] [%]	inhibition [10] [%]
CCCCCNC(=O)NS(=O)(=O)c1cc([N+](=O)[O-])ccc1NC1CCCCC1	23.6	14.5%	8.51	19.1	22.7	14.4	13.9	-1.39%	30.5	–
N=C(N)NC(=O)Cc1c(Cl)cccc1Cl	3.06	12.5%	-0.992	-0.939	-6.99	20.2	3.31	10.8%	-4.2	–
COc1cc(C(=O)N(CCC2CCCN2C)C/C(C)=C/c2ccccc2F)cc(OC)c1OC (stereo unspecified)	0.239	-1.62%	–	-9.88	-5.37	-5.21	-3.01	4.16%	-4.18	-3.28
CN[C@@H](C)C/C=C/c1cncc(OC(C)C)c1	4.54	6.78%	–	-3.71	1.46	4.7	-1.2	-3.1%	16.8	-5.51
O=S1(=O)NCN(C2CC2)c2ccc(F)cc21	10.8	8.57%	–	3.15	0.854	10.5	-1.26	3.86%	6.74	-3.37
C=CC(=O)Nc1cccc(C(=O)Nc2ccc(Nc3cc(-c4[nH]c(S)nc4C)ccn3)cc2)c1	102	8.04%	–	19.6	23.5	-6.89	16.9	5.55%	61	3.19
N#Cc1ccc(O[C@@H]2c3ccccc3C[C@H]2N2CCC[C@@H](N)C2)c(Cl)c1	18.8	3.73%	–	-4.18	-4.66	3.87	-4.87	13.1%	0.102	-1.13
O=C(O)c1n[nH]c2c1C[C@H]1C[C@@H]21	-5.48	-1.48% and -4.98%	-1.41	-4.72	-4.32	21.7	-5.22	-0.352% and 3.65%	-6.12	–
CC(C)[C@@H]1CC[C@@H](C)C[C@@H]1P(=O)(c1ccccc1)c1ccccc1	-6.96	–	-2.54	-5.97	3.26	6.35	-9.39	-6.96%	1.29	–
Cc1nnc2ccc(-c3cccc(C(F)(F)F)c3)nn12	5.5	-0.86%	–	-6.43	9.3	22	-2.84	1.34%	-2.78	-4.72
CC[C@H]1CN(c2nc(N)c(C(N)=O)nc2Cl)CCN1C1CCN(Cc2ccc(Cl)cc2)CC1	2.57	3.47%	–	-5.95	-2.17	24.5	-7.08	5.05%	-3.97	-8.52
COc1cccc([C@H](O)C2CCN(CCc3ccc(F)cc3)CC2)c1OC	22.3	-8.72%	-1.39	-10	14.4	3.39	4.47	-1.98%	-6.25	–
CSc1cc2c(cc1C(F)(F)F)N(C(=O)Nc1cccnc1)CC2	11.2	16.2%	-1.82	-3.29	-9.84	5.59	4.28	6.91%	-9.06	–
COc1cc(OC2CCN(C(C)=O)CC2)ccc1C(=O)N1CCC(N2C(=O)OCc3ccccc32)CC1	20.8	5.25%	–	-3.3	5.95	24.5	-0.579	2.08%	48.1	-2.76
NCCc1cccs1	6.37	9.33%	–	-5.51	2.05	8.82	-0.24	7.57%	-1.84	-3.89
Cc1nnn(-c2ccc(-c3ccc(C4(C(=O)O)CC4)cc3)cc2)c1NC(=O)O[C@H](C)c1ccccc1	20.7	4.01%	-1.41	13.9	34.4	-7.6	4.91	-1.39%	17.2	–
Cc1c(F)cccc1[C@H]1COC(N)=N1	11.7	-0.86%	–	12.2	5.02	14.6	-8.55	11.3%	32.1	-1.2
CCCCC[C@H](O)/C=C/[C@@H]1[C@@H](C/C=C\CCCC(=O)O)[C@@H](O)C[C@H]1O	25.5	0.515%	–	-6.92	-2.06	7.79	8.11	7.21%	-4.2	-8.4
CCCNS(=O)(=O)Nc1ncnc(OCCOc2ncc(Br)cn2)c1-c1ccc(Br)cc1	18.3	2.51%	2.2	19	24.4	7.05	-4.93	-4.06%	26.1	–
CO[C@H]1CC=C2CCN3CCC4=C(CC(=O)OC4)[C@]23C1	-1.81	-5.96%	–	-7.01	5.26	-0.258	-2.5	-3.1%	1.14	-6.82
N[C@@]1(C(=O)O)CC[C@H]2[C@H](C(=O)O)[C@H]21	13.1	-1.37%	–	-1.43	2.62	27.8	2.53	5.05%	4.77	-8.38
CC(C)(O)c1cnc(N2C[C@@]3(CCC[C@](C)(Cn4cnc5ccc(C#N)cc54)C3)OC2=O)cn1	6.22	5.76%	–	10.5	9.84	8	2.98	1.2%	47.1	-2.44
CN(C)CCCc1cc(C(=O)Nc2ccc(-c3ccncc3)cc2)ccc1O	22.9	8.82%	–	5.48	15.3	12.1	1.23	0.602%	5.24	-0.815
